≈ marks a conversion by molar mass, not a printed value. Where two headings read alike, the source gives them in different places. Starred links: 1 amine or outer side, 2 acyl side, 3 side chain; linkers in the order of their positions; H or OH if unused. Positions of bridges follow the written chain, without caps; N, C: chain ends. Non-standard residues stand in square brackets, D forms with d. Residues, ends and D or L forms follow the SMILES beside them. ξ: configuration not given here. X4 = CC(C)CCCCCCCCCCC(CC(=O)[*:1])O[*:2]; X2 = CC(C)CCCCCCCCCC(CC(=O)[*:1])O[*:2]; X3 = CC(C)CCCCCCC(CC(=O)[*:1])O[*:2]; ξAsp(3ξ-OH) = NC(C(=O)O)C(O)C(=O)O; X1 = O=C(C1C(O)CCN1[*:1])[*:2]
What was measured:
[1] = tested on: Staphylococcus aureus FDA209P; test: Minimum growth inhibitory concentration, agar serial dilution; type: cell-based; conditions: Mueller-Hinton agar
[2] = tested on: Staphylococcus aureus Smith; test: as above; type: cell-based; conditions: Mueller-Hinton agar
[3] = tested on: Staphylococcus aureus MS9610 (multi-drug-resistant); test: as above; type: cell-based; conditions: Mueller-Hinton agar
[4] = tested on: Staphylococcus aureus MS16460 (methicillin-resistant); test: as above; type: cell-based; conditions: read-out: Minimum growth inhibitory concentration
[5] = tested on: Staphylococcus aureus MS16497 (methicillin-resistant); test: as above; type: cell-based; conditions: Mueller-Hinton agar
[6] = tested on: Staphylococcus aureus MS16526 (methicillin-resistant); test: as above; type: cell-based; conditions: Mueller-Hinton agar
[7] = tested on: Staphylococcus aureus TY-00933 (methicillin-resistant); test: as above; type: cell-based; conditions: read-out: Minimum growth inhibitory concentration
[8] = tested on: Staphylococcus aureus TY-03454 (methicillin-resistant); test: as above; type: cell-based; conditions: Mueller-Hinton agar
[9] = tested on: Staphylococcus aureus TY-03456 (methicillin-resistant); test: as above; type: cell-based; conditions: read-out: Minimum growth inhibitory concentration
[10] = tested on: Staphylococcus aureus TY-04282 (methicillin-resistant); test: as above; type: cell-based; conditions: Mueller-Hinton agar
Micrococcus luteus FDA16 = test: as above; type: cell-based; conditions: Mueller-Hinton agar
Bacillus anthracis = test: microbe, parasite or virus in culture; type: cell-based; conditions: read-out: Minimum growth inhibitory concentration
Bacillus subtilis PCI219 = test: Minimum growth inhibitory concentration, agar serial dilution; type: cell-based; conditions: Mueller-Hinton agar
[11] = tested on: Bacillus cereus ATCC10702; test: as above; type: cell-based
[12] = tested on: Corynebacterium bovis 1810; test: as above; type: cell-based; conditions: Mueller-Hinton agar
Shigella sonnei JS11746 = test: as above; type: cell-based; conditions: Mueller-Hinton agar
Method: (§1) Minimum growth inhibitory concentrations (μg/ml) of tripropeptin Z against a variety of microorganisms were measured on a Mueller-Hinton agar medium (manufactured by Difco Laboratories) or on a 5% sheep blood-supplemented Mueller-Hinton agar medium (manufactured by Difco Laboratories) for Enterococcus, by a serial dilution method according to the standard method as provided by Japanese Society of Chemotherapy.
as §1, with “A” for “Z”
as §1, with “B” for “Z”
as §1, with “C” for “Z”
as §1, with “D” for “Z”

Salmonella typhi T-63 = test: as above; type: cell-based; conditions: Salmonella enterica, Mueller-Hinton agar
[13] = tested on: Klebsiella pneumoniae PCI602; test: as above; type: cell-based; conditions: Mueller-Hinton agar
[14] = tested on: Enterococcus faecalis JCM5803; test: as above; type: cell-based; conditions: 5% sheep blood-supplemented Mueller-Hinton agar
[15] = tested on: Enterococcus faecium JCM5804; test: as above; type: cell-based; conditions: 5% sheep blood-supplemented Mueller-Hinton agar
[16] = tested on: Enterococcus faecalis NCTC 12201 (vancomycin-resistant); test: as above; type: cell-based; conditions: NCTC12201, 5% sheep blood-supplemented Mueller-Hinton agar
[17] = tested on: Enterococcus faecium NCTC 12202 (vancomycin-resistant); test: as above; type: cell-based; conditions: NCTC12202, 5% sheep blood-supplemented Mueller-Hinton agar
[18] = tested on: Enterococcus faecalis NCTC 12203 (vancomycin-resistant); test: as above; type: cell-based; conditions: NCTC12203, 5% sheep blood-supplemented Mueller-Hinton agar
[19] = tested on: Enterococcus faecium NCTC 12204 (vancomycin-resistant); test: as above; type: cell-based; conditions: NCTC12204, 5% sheep blood-supplemented Mueller-Hinton agar
[20] = tested on: mice (ICR type, 4 weeks-aged, male); conditions: mouse, in vivo, iv, 300 mg/kg
From the text: However, an optimal dose of a tripropeptin can be decided by experts through suitable preliminary tests.

[21] = Bacillus cereus, ATCC10702, read-out: Minimum growth inhibitory concentration
[22] = Staphylococcus aureus TY-00933 (methicillin-resistant), Mueller-Hinton agar
[23] = Staphylococcus aureus TY-03456 (methicillin-resistant), Mueller-Hinton agar

Compound | MIC [1] | MIC [2] | MIC [3] | MIC [5] | MIC [6] | MIC [8] | MIC [10] | MIC (Micrococcus luteus FDA16) | MIC (Bacillus anthracis) | MIC (Bacillus subtilis PCI219) | MIC [12] | MIC (Shigella sonnei JS11746) | MIC (Salmonella typhi T-63) | MIC [13] | MIC [14] | MIC [15] | MIC [16] | MIC [17] | MIC [18] | MIC [19] | also measured
CC(C)CCCCCCCCCC1CC(=O)NC(C(C)O)C(=O)N2CCCC2C(=O)N2CCCC2C(=O)NC(CCCNC(=N)N)C(=O)NC(C(O)C(=O)O)C(=O)NC(CO)C(=O)N2CCC(O)C2C(=O)NC(C(O)C(=O)O)C(=O)O1 (stereo not shown) [Tripropeptin C] (TPPR[ξAsp(3ξ-OH)]S[X1][ξAsp(3ξ-OH)]; linker N-C via X2; configuration not given here) | 1.56 µg/mL (≈ 1.35 µM) | 1.56 µg/mL (≈ 1.35 µM) | 1.56 µg/mL (≈ 1.35 µM) | 1.56 µg/mL (≈ 1.35 µM) | 1.56 µg/mL (≈ 1.35 µM) | 1.56 µg/mL (≈ 1.35 µM) | 1.56 µg/mL (≈ 1.35 µM) | 0.2 µg/mL (≈ 0.173 µM) | 3.13 µg/mL (≈ 2.71 µM) | 1.56 µg/mL (≈ 1.35 µM) | 0.39 µg/mL (≈ 0.338 µM) | > 100 µg/mL | > 100 µg/mL | > 100 µg/mL | 12.5 µg/mL (≈ 10.8 µM) | 12.5 µg/mL (≈ 10.8 µM) | 6.25 µg/mL (≈ 5.41 µM) | 12.5 µg/mL (≈ 10.8 µM) | 25 µg/mL (≈ 21.7 µM) | 12.5 µg/mL (≈ 10.8 µM) | MIC ([4]; Staphylococcus aureus): 3.13 µg/mL (≈ 2.71 µM); MIC ([7]; Staphylococcus aureus): 3.13 µg/mL (≈ 2.71 µM); MIC ([9]; Staphylococcus aureus): 3.13 µg/mL (≈ 2.71 µM); MIC [11, 21]: 3.13 µg/mL (≈ 2.71 µM); Toxicity [20]: did not exhibit any toxicity
CC(C)CCCCCCCCCCC1CC(=O)NC(C(C)O)C(=O)N2CCCC2C(=O)N2CCCC2C(=O)NC(CCCNC(=N)N)C(=O)NC(C(O)C(=O)O)C(=O)NC(CO)C(=O)N2CCC(O)C2C(=O)NC(C(O)C(=O)O)C(=O)O1 (stereo not shown) [Tripropeptin D] (TPPR[ξAsp(3ξ-OH)]S[X1][ξAsp(3ξ-OH)]; linker N-C via X4; configuration not given here) | 0.39 µg/mL (≈ 0.334 µM) | 0.39 µg/mL (≈ 0.334 µM) | 0.78 µg/mL (≈ 0.668 µM) | 0.78 µg/mL (≈ 0.668 µM) | 0.78 µg/mL (≈ 0.668 µM) | 0.78 µg/mL (≈ 0.668 µM) | 0.78 µg/mL (≈ 0.668 µM) | 0.2 µg/mL (≈ 0.171 µM) | 1.56 µg/mL (≈ 1.34 µM) | 0.78 µg/mL (≈ 0.668 µM) | 0.2 µg/mL (≈ 0.171 µM) | > 100 µg/mL | > 100 µg/mL | > 100 µg/mL | 3.13 µg/mL (≈ 2.68 µM) | 6.25 µg/mL (≈ 5.35 µM) | 3.13 µg/mL (≈ 2.68 µM) | 6.25 µg/mL (≈ 5.35 µM) | 6.25 µg/mL (≈ 5.35 µM) | 6.25 µg/mL (≈ 5.35 µM) | MIC ([4]; Staphylococcus aureus): 1.56 µg/mL (≈ 1.34 µM); MIC [7, 22]: 0.78 µg/mL (≈ 0.668 µM); MIC [9, 23]: 0.78 µg/mL (≈ 0.668 µM); MIC [11, 21]: 1.56 µg/mL (≈ 1.34 µM)
CC(C)CCCCCCC1CC(=O)NC(C(C)O)C(=O)N2CCCC2C(=O)N2CCCC2C(=O)NC(CCCNC(=N)N)C(=O)NC(C(O)C(=O)O)C(=O)NC(CO)C(=O)N2CCC(O)C2C(=O)NC(C(O)C(=O)O)C(=O)O1 (stereo not shown) [Tripropeptin Z] (TPPR[ξAsp(3ξ-OH)]S[X1][ξAsp(3ξ-OH)]; linker N-C via X3; configuration not given here) | 12.5 µg/mL (≈ 11.2 µM) | 6.25 µg/mL (≈ 5.62 µM) | 25 µg/mL (≈ 22.5 µM) | 25 µg/mL (≈ 22.5 µM) | 25 µg/mL (≈ 22.5 µM) | 25 µg/mL (≈ 22.5 µM) | 25 µg/mL (≈ 22.5 µM) | < 0.39 µg/mL | 100 µg/mL (≈ 89.9 µM) | 25 µg/mL (≈ 22.5 µM) | 6.25 µg/mL (≈ 5.62 µM) | > 100 µg/mL | > 50 µg/mL | > 50 µg/mL | 100 µg/mL (≈ 89.9 µM) | > 100 µg/mL | 100 µg/mL (≈ 89.9 µM) | > 100 µg/mL | > 100 µg/mL | > 100 µg/mL | MIC ([4]; Staphylococcus aureus MS16460 (methicillin-resistant), Mueller-Hinton agar): 50 µg/mL (≈ 45 µM); MIC [7, 22]: 25 µg/mL (≈ 22.5 µM); MIC [9, 23]: 25 µg/mL (≈ 22.5 µM); MIC ([11]; Bacillus cereus ATCC10702, Mueller-Hinton agar, read-out: Minimum growth inhibitory concentration): > 50 µg/mL

Source: US7271147B2, “Antibiotics, tripropeptins and process for producing the same” (Zaidan Hojin Biseibutsu Kagaku Kenkyu Kai, priority 2000, dated 2007)
